Where “and” joins values, the source holds several entries; their conditions need not be identical. Equal entries are not always repeated. Where two headings read alike, the source gives them in different places.
Tests used:
HsProRS = HsProRS (Homo sapiens, UniProt P07814); assay: TR-FRET ligand displacement assay with tracer MAT379 (CoraFluor-1-Halo and anti-His6 antibody formats); assay type: binding; parameters: made in house; host or cells: E. coli SoluBL-21; conditions: for TR-FRET dose-response, normalized signal (SI Fig 11): individual replicates
P. falciparum Dd2-2D4 = assay: P. falciparum asexual blood stage (ABS) growth assay, SYBR Green, 72 h, wild-type parasites; assay type: cell-based, Plasmodium falciparum; conditions: Plasmodium falciparum, DD2; SI Fig 16b; values on -log scale; read-out: ABS - Dd2-2D4 (converted)
PfcProRS = molecular target: T1, PfcProRS (Plasmodium falciparum, UniProt Q8I5R7); assay type: binding; conditions: for dose-response signal (normalized), SI Fig 8: single replicates
T1 construct: made in house; host or cells: E. coli SoluBL-21
T1 sequence (Q8I5R7 249-746): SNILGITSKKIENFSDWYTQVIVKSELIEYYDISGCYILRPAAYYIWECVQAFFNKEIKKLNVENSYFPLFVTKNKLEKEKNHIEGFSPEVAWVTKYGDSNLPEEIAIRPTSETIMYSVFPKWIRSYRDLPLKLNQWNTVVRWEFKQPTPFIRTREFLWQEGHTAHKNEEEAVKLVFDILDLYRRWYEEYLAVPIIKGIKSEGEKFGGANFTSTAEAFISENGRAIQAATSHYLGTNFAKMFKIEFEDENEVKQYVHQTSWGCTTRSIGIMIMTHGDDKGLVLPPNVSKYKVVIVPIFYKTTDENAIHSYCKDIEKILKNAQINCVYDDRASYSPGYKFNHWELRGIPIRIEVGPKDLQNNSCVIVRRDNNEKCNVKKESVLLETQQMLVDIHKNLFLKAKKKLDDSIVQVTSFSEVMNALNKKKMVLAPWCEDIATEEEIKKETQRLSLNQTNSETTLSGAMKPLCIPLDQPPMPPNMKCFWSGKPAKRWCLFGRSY

Chain of HsProRS (P07814 996-1512): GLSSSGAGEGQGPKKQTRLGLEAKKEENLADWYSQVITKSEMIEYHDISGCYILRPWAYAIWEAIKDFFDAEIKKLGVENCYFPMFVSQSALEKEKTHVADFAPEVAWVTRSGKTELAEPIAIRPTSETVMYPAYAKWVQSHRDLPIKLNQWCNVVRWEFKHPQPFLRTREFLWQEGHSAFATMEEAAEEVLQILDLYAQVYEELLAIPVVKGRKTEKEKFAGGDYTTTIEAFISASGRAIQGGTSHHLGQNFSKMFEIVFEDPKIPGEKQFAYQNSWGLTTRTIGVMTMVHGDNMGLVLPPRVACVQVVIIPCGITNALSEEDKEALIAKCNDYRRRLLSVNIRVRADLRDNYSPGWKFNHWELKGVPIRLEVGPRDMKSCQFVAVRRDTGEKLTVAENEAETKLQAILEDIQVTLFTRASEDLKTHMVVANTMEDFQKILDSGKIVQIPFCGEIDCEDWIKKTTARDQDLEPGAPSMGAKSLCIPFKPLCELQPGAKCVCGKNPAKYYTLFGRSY

O=C(Nc1nccnc1C(=O)NC1Cc2ccccc2C1)c1ccccc1 [compound 21]
Kd (HsProRS; HsProRS (KD [nM]) mean, no added proline/ATP (-)): 7830 nM | Kd (HsProRS; HsProRS - best Kd, SI Fig 16a, values on -log scale): 140 nM | normalized TR-FRET ligand displacement signal, dose-response replicates (SI Fig 6) (HsProRS; Log[inhibitor] (M) -5.000): 5.46E-01 and 5.55E-01 and 4.94E-01 | TR-FRET dose-response, normalized signal (SI Fig 11) (HsProRS; Log[inhibitor] (M) -5.000): 4.76E-01 and 4.38E-01 and 4.70E-01 | normalized TR-FRET ligand displacement signal, dose-response replicates (SI Fig 6) (HsProRS; Log[inhibitor] (M) -5.301): 7.40E-01 and 7.43E-01 and 7.80E-01 | TR-FRET dose-response, normalized signal (SI Fig 11) (HsProRS; Log[inhibitor] (M) -5.301): 6.10E-01 and 6.26E-01 and 6.30E-01 | normalized TR-FRET ligand displacement signal, dose-response replicates (SI Fig 6) (HsProRS; Log[inhibitor] (M) -5.601): 9.19E-01 and 8.75E-01 and 9.42E-01 | TR-FRET dose-response, normalized signal (SI Fig 11) (HsProRS; Log[inhibitor] (M) -5.601): 7.50E-01 and 7.65E-01 and 7.70E-01 | normalized TR-FRET ligand displacement signal, dose-response replicates (SI Fig 6) (HsProRS; Log[inhibitor] (M) -5.904): 9.17E-01 and 1.01E+00 and 8.04E-01 | TR-FRET dose-response, normalized signal (SI Fig 11) (HsProRS; Log[inhibitor] (M) -5.904): 8.93E-01 and 9.01E-01 and 8.63E-01 | normalized TR-FRET ligand displacement signal, dose-response replicates (SI Fig 6) (HsProRS; Log[inhibitor] (M) -6.208): 9.67E-01 and 9.54E-01 and 1.10E+00 | TR-FRET dose-response, normalized signal (SI Fig 11) (HsProRS; Log[inhibitor] (M) -6.208): 8.73E-01 and 9.00E-01 and 9.32E-01 | normalized TR-FRET ligand displacement signal, dose-response replicates (SI Fig 6) (HsProRS; Log[inhibitor] (M) -6.509): 9.94E-01 and 9.87E-01 and 9.37E-01 | TR-FRET dose-response, normalized signal (SI Fig 11) (HsProRS; Log[inhibitor] (M) -6.509): 9.94E-01 and 8.74E-01 and 9.48E-01 | normalized TR-FRET ligand displacement signal, dose-response replicates (SI Fig 6) (HsProRS; Log[inhibitor] (M) -6.796): 1.04E+00 (2×) and 9.65E-01 | TR-FRET dose-response, normalized signal (SI Fig 11) (HsProRS; Log[inhibitor] (M) -6.796): 9.17E-01 and 9.74E-01 and 9.27E-01 | normalized TR-FRET ligand displacement signal, dose-response replicates (SI Fig 6) (HsProRS; Log[inhibitor] (M) -7.108): 1.01E+00 and 1.08E+00 and 1.09E+00 | TR-FRET dose-response, normalized signal (SI Fig 11) (HsProRS; Log[inhibitor] (M) -7.108): 9.75E-01 and 8.96E-01 and 1.01E+00 | normalized TR-FRET ligand displacement signal, dose-response replicates (SI Fig 6) (HsProRS; Log[inhibitor] (M) -7.409): 1.16E+00 and 9.90E-01 and 9.46E-01 | TR-FRET dose-response, normalized signal (SI Fig 11) (HsProRS; Log[inhibitor] (M) -7.409): 9.43E-01 and 9.53E-01 and 9.38E-01 | normalized TR-FRET ligand displacement signal, dose-response replicates (SI Fig 6) (HsProRS; Log[inhibitor] (M) -7.710): 1.13E+00 and 9.28E-01 and 1.00E+00 | TR-FRET dose-response, normalized signal (SI Fig 11) (HsProRS; Log[inhibitor] (M) -7.710): 1.01E+00 and 9.57E-01 and 9.99E-01 | normalized TR-FRET ligand displacement signal, dose-response replicates (SI Fig 6) (HsProRS; Log[inhibitor] (M) -8.000): 1.06E+00 and 9.95E-01 and 9.77E-01 | TR-FRET dose-response, normalized signal (SI Fig 11) (HsProRS; Log[inhibitor] (M) -8.000): 9.75E-01 and 9.47E-01 and 9.43E-01 | normalized TR-FRET ligand displacement signal, dose-response replicates (SI Fig 6) (HsProRS; Log[inhibitor] (M) -8.301): 9.85E-01 and 1.04E+00 and 1.05E+00 | TR-FRET dose-response, normalized signal (SI Fig 11) (HsProRS; Log[inhibitor] (M) -8.301): 8.99E-01 and 9.31E-01 and 9.94E-01 | normalized TR-FRET ligand displacement signal, dose-response replicates (SI Fig 6) (HsProRS; Log[inhibitor] (M) -8.602): 9.47E-01 and 9.26E-01 and 9.87E-01 | TR-FRET dose-response, normalized signal (SI Fig 11) (HsProRS; Log[inhibitor] (M) -8.602): 9.70E-01 and 9.30E-01 and 9.54E-01 | normalized TR-FRET ligand displacement signal, dose-response replicates (SI Fig 6) (HsProRS; Log[inhibitor] (M) -9.000): 9.16E-01 and 9.83E-01 and 9.58E-01 | TR-FRET dose-response, normalized signal (SI Fig 11) (HsProRS; Log[inhibitor] (M) -9.000): 9.06E-01 and 1.03E+00 and 9.30E-01 | normalized TR-FRET ligand displacement signal, dose-response replicates (SI Fig 6) (HsProRS; Log[inhibitor] (M) -9.301): 8.87E-01 and 1.01E+00 (2×) | TR-FRET dose-response, normalized signal (SI Fig 11) (HsProRS; Log[inhibitor] (M) -9.301): 9.47E-01 and 9.42E-01 and 9.85E-01 | EC50 (P. falciparum Dd2-2D4): 9.59 µM | dose-response signal (normalized), SI Fig 8 (PfcProRS; Log[inhibitor] (M) -5.000): 2.91E-01 and 3.96E-01 and 3.40E-01 | dose-response signal (normalized), SI Fig 8 (PfcProRS; Log[inhibitor] (M) -5.301): 6.52E-01 and 5.68E-01 and 6.33E-01 | dose-response signal (normalized), SI Fig 8 (PfcProRS; Log[inhibitor] (M) -5.601): 7.76E-01 and 6.88E-01 and 8.76E-01 | dose-response signal (normalized), SI Fig 8 (PfcProRS; Log[inhibitor] (M) -5.904): 1.01E+00 and 9.17E-01 and 9.47E-01 | dose-response signal (normalized), SI Fig 8 (PfcProRS; Log[inhibitor] (M) -6.208): 1.01E+00 and 1.00E+00 and 8.81E-01 | dose-response signal (normalized), SI Fig 8 (PfcProRS; Log[inhibitor] (M) -6.509): 9.40E-01 and 8.71E-01 and 1.01E+00 | dose-response signal (normalized), SI Fig 8 (PfcProRS; Log[inhibitor] (M) -6.796): 1.06E+00 and 9.99E-01 and 1.08E+00 | dose-response signal (normalized), SI Fig 8 (PfcProRS; Log[inhibitor] (M) -7.108): 9.00E-01 and 9.54E-01 and 9.75E-01 | dose-response signal (normalized), SI Fig 8 (PfcProRS; Log[inhibitor] (M) -7.409): 1.04E+00 and 1.03E+00 and 9.91E-01 | dose-response signal (normalized), SI Fig 8 (PfcProRS; Log[inhibitor] (M) -7.710): 9.51E-01 and 8.62E-01 and 1.00E+00 | dose-response signal (normalized), SI Fig 8 (PfcProRS; Log[inhibitor] (M) -8.000): 9.32E-01 and 1.04E+00 and 9.09E-01 | dose-response signal (normalized), SI Fig 8 (PfcProRS; Log[inhibitor] (M) -8.301): 9.87E-01 and 9.76E-01 and 8.57E-01 | dose-response signal (normalized), SI Fig 8 (PfcProRS; Log[inhibitor] (M) -8.602): 1.04E+00 (2×) and 9.76E-01 | dose-response signal (normalized), SI Fig 8 (PfcProRS; Log[inhibitor] (M) -9.000): 9.49E-01 and 9.11E-01 and 1.01E+00 | dose-response signal (normalized), SI Fig 8 (PfcProRS; Log[inhibitor] (M) -9.301): 1.10E+00 and 1.02E+00 and 1.05E+00 | PfcProRS -- best Kd (PfcProRS; SI Fig 16a, values on -log scale): 5.845
